Assay results taken from patent publication US4812409A, “Hydrolyzable fluorescent substrates and analytical determinations using same” (Eastman Kodak Company, priority 1986, dated 1989).

What was measured:
[1] = test system: Klebsiella pneumoniae (ATCC 13882); test: Detection of Klebsiella pneumoniae with β-D-xylosidase substrate, fluorescence; type: cell-based; details: for Relative Fluorescence: 37° C., ex 540 nm, em 620 nm
Method: (§1) Cells were prepared as follows. A β-D-xylosidase induction medium was prepared by adding the following materials in order to 350 μl of 0.1 molar sodium, potassium phosphate buffer (pH 7.0), 25 μl 5% yeast extract, 50 μl of 4% (NH4)2 HPO4 and 1% KCl, 50 μl 0.0075% MnSO4.H2 O and 0.01% FeSO4.7H2 O. This mixture was autoclaved for 30 minutes, then cooled. Just before incubation, 25 μl of 20% xylose solution and 2% MgSO4.7H2 O, which had been filter sterilized or autoclaved separately, were added. Klebsiella pneumoniae (ATCC 13882) and Enterobacter cloacae (ATCC 23355) were both grown in this medium for 18 hours at 37° C. Ten milliliters of cells were harvested by centrifugation, washed, and resuspended in 0.1 molar potassium phosphate buffer (pH 7.0). The cell concentration was adjusted to approximately 5×10^8 cells/ml (optical density 0.800 at 620 nm).
(§2) In two milliliters HA 96 well titration plates were placed 200 μl of the cell suspension. To plate 1 was added 100 μl of the substrate solution of Example 1 without surfactant (10 μg/μl N,N-dimethylformamide in 9 μl potassium phosphate buffer), to plate 2 was added the substrate solution with surfactant (10 μg/μl N,N-dimethylformamide and 200 μl TRITON X-100 surfactant in 9 μl potassium phosphate buffer).
(§3) After the substrate was added, an initial reading was taken, the plates were kept at 37° C., and additional readings were taken after 5, 10, 15, 30, and 60 minutes. The average of three replicates was used. A commercially available Dynatech Microfluor Reader, modified with an excitation filter at 540 nm, an emission filter at 620 nm, a 200-watt tungsten lamp and a heating element, was used to measure fluorescence.

[2] = test system: Enterobacter cloacae (ATCC 23355); test: Detection of Enterobacter cloacae with β-D-xylosidase substrate, fluorescence; type: cell-based; details: for Relative Fluorescence: 37° C., ex 540 nm, em 620 nm
Method: as §1, §2, §3

[3] = Millititer Plate 1, without surfactant, 0 min
[4] = Millititer Plate 1, without surfactant, 5 min
[5] = Millititer Plate 1, without surfactant, 10 min
[6] = Millititer Plate 1, without surfactant, 15 min
[7] = Millititer Plate 1, without surfactant, 30 min
[8] = Millititer Plate 1, without surfactant, 60 min
[9] = Millititer Plate 2, with TRITON X-100 surfactant, 0 min
[10] = Millititer Plate 2, with TRITON X-100 surfactant, 5 min
[11] = Millititer Plate 2, with TRITON X-100 surfactant, 10 min
[12] = Millititer Plate 2, with TRITON X-100 surfactant, 15 min
[13] = Millititer Plate 2, with TRITON X-100 surfactant, 30 min
[14] = Millititer Plate 2, with TRITON X-100 surfactant, 60 min
[15] = both substrate solutions (with and without surfactant)

## O=C1C=Cc2ccc(O[C@@H]3OC[C@@H](O)[C@H](O)[C@H]3O)c3cccc1c23 [Example 1, 1-(6-Oxyphenalenone)-β-D-xylopyranose]
[1]; [3]
  Relative Fluorescence: 500
[1]; [4]
  Relative Fluorescence: 585
[1]; [5]
  Relative Fluorescence: 698
[1]; [6]
  Relative Fluorescence: 752
[1]; [7]
  Relative Fluorescence: 1205
[1]; [8]
  Relative Fluorescence: 1686
[1]; [9]
  Relative Fluorescence: 557
[1]; [10]
  Relative Fluorescence: 635
[1]; [11]
  Relative Fluorescence: 741
[1]; [12]
  Relative Fluorescence: 869
[1]; [13]
  Relative Fluorescence: 1232
[1]; [14]
  Relative Fluorescence: 1976
[1]; [15]
  Time at which the microorganism can be detected: 15 min
[2]; [3]
  Relative Fluorescence: 525
[2]; [4]
  Relative Fluorescence: 684
[2]; [5]
  Relative Fluorescence: 925
[2]; [6]
  Relative Fluorescence: 1150
[2]; [7]
  Relative Fluorescence: 2245
[2]; [8]
  Relative Fluorescence: 2717
[2]; [9]
  Relative Fluorescence: 586
[2]; [10]
  Relative Fluorescence: 902
[2]; [11]
  Relative Fluorescence: 1341
[2]; [12]
  Relative Fluorescence: 1795
[2]; [13]
  Relative Fluorescence: 2626
[2]; [14]
  Relative Fluorescence: 3003
[2]; [15]
  Time at which the microorganism can be detected: 15 min
